Laboratory results taken from patent US7977352B2, “Triazolopyridine compounds useful for the treatment of degenerative and inflammatory diseases” (Galapagos NV, priority 2006, dated 2011).

Columns and labels:
[1] = tested on: MMP1 expression by activated synovial fibroblasts (RASFs); assay: MMP assay: MMP1 expression by RASFs triggered with 'complex trigger' (supernatant of TNF-α-treated THP-1 cells); assay type: cell-based; conditions: 'complex trigger' 12.5%, MMP1 ELISA, semi-quantitative score, read-out: Reduction MMP1/THP1
Procedure: A 384-well format ELISA for measurement of MMP1 is developed. Various primary antibodies are tested, as well as various ELISA protocols. The following protocol is developed and validated to measure MMP1 levels in SF supernatant in 384 well plates: white Lumitrac 600 384 well plates (Greiner) are coated with 2 μg/mL anti-MMP1 antibody MAB1346 (Chemicon). The antibody is diluted in buffer 40 (1.21 g Tris base (Sigma), 0.58 g NaCl (Calbiochem) and 5 mL 10% NaN3 (Sigma) in 1 L milliQ water and adjusted to pH 8.5). After overnight incubation at 4° C., plates are washed with PBS (80 g NaCl, 2 g KCl (Sigma), 11.5 g Na2HPO4.7H2O and 2 g KH2PO4 in 10 L milliQ; pH 7.4) and blocked with 100 μL/well Casein buffer (2% Casein (VWR International) in PBS). Next day, casein buffer is removed from ELISA plates and replaced by 50 μL/well EC buffer (4 g casein, 2.13 g Na2HPO4 (Sigma), 2 g bovine albumin (Sigma), 0.69 g NaH2PO4.H2O (Sigma), 0.5 g CHAPS (Roche), 23.3 g NaCl, 4 mL 0.5 M EDTA pH 8 (Invitrogen), 5 mL 10% NaN3 in 1 L milliQ and adjusted to pH 7.0). 0.25 mM DTT (Sigma) is added to the thawed sample plates. After removal of the EC buffer, 20 μL of sample is transferred to the ELISA plates. After overnight incubation at 4° C. plates are washed twice with PBS and once with PBST (PBS with 0.05% Tween-20 (Sigma)) and incubated with 35 μL/well biotinylated anti-MMP1 antibody solution (R&D). This secondary antibody is diluted in buffer C (0.82 g NaH2PO4.H2O, 4.82 g Na2HPO4, 46.6 g NaCl, 20 g bovine albumin and 4 mL 0.5M EDTA pH 8 in 2 L milliQ and adjusted to pH 7.0) at a concentration of 5 μg/mL. After 2 h of incubation at RT, plates are washed as described above and incubated with 50 μL/well streptavidin-HRP conjugate (Biosource). Streptavidin-HRP conjugate is diluted in buffer C at a concentration of 0.25 μg/mL. After 45 min, plates are washed as described above and incubated for 5 min with 50 μL/well BM Chem ELISA Substrate (Roche). Readout is performed on the Luminoscan Ascent Luminometer (Labsystems) with an integration time of 200 msec or with an Envision reader (Perkin Elmer).
The increase of MMP1 expression by SFs upon treatment with cytokines relevant in the field of RA (TNF-α, IL1β and OSM) or a combination thereof is shown in FIG. 2 as white bars. For this experiment, SFs are seeded in 96 well plates, 3,000 cells/well. 24 h later, the medium is changed to M199 medium supplemented with 1% FBS. One day after the medium change, cytokines or combinations thereof are added to the cultures, each cytokine being added to a final concentration of 25 ng/mL. 72 h after cytokine addition, the supernatant is collected and processed in the MMP1 ELISA as described in the protocol given above. In parallel with this experiment, SFs are triggered, using the same protocol, with the supernatant of THP1 cells (2-fold diluted in M199+1% FBS) treated with the same cytokines or combinations of cytokines for 48 h in M199 medium+1% FBS. The induction of the MMP1 expression by SFs triggered with the supernatants of TNF-α-treated THP1 cells is stronger (>4.5 fold induction) as compared to the SFs triggered with recombinant TNF-α alone (3-fold induction) and almost equals the 5-fold induction obtained by a mixture of 3 purified cytokines (TNF-α, IL1βb, OSM). […] As the role of TNF-α in the RA pathogenesis is validated (TNF-α-blockers as Infliximab and Ethanercept show some efficacy in the treatment of RA patients) and the THP-1 cells are representative for monocytes/macrophages present in the joint of RA patients, the TNF-α-based trigger mixture prepared by contacting THP-1 cells with TNF-α will contain factors present in the joints of RA patients and subsequently is relevant to RA. This TNF-α-based complex trigger, further referred to as the ‘complex trigger’, will further be used as basis for the ‘MMP assay’. For preparing a stock of this ‘complex trigger’, THP-1 cells are used between passage 8 and 16. […]

[2] = tested on: MMP1 expression by activated synovial fibroblasts (RASFs); assay: MMP assay: MMP1 expression by RASFs triggered with TNF-α (MMP1 ELISA); assay type: cell-based; conditions: TNF-α trigger 10 ng/mL, semi-quantitative score, read-out: REDUCTION MMP1/TNFa
Procedure, shortened: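 Primary RA synovial fibroblasts (passage 10–12, 3000 cells/well) were preincubated 90 min with compound in M199/1% FBS (0.2% DMSO), then triggered with TNF-α at 10 ng/mL final or 12.5% complex trigger for 48 h. MMP1 in supernatant was measured by sandwich chemiluminescent ELISA; untriggered and vehicle-triggered wells served as min/max controls.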

| Compound | IC50 ([1]; Homo sapiens, THP-1, 48 h) [µM] | IC50 ([2]; Fibroblast, 48 h) [nM] | IC50 ([2]; 48 hrs) [nM] | IC50 ([1]; 48 hrs) [µM] |
| --- | --- | --- | --- | --- |
| CN1CCN(c2ccc(Nc3ccc(-c4cc[nH]c(=O)c4)n4ncnc34)cc2)CC1 [Example 40, 4-(8-{[4-(4-methylpiperazin-1-yl)phenyl]amino}[1,2,4]triazolo[1,5-a]pyridin-5-yl)pyridin-2(1H)-one] | 1 to 5 | 1000 to 5000 | – | – |
| Cc1[nH]ncc1-c1ccc(Nc2ccc(N3CCOCC3)cc2)c2ncnn12 [Example 39, 5-(5-methyl-1H-pyrazol-4-yl)-N-(4-morpholin-4-ylphenyl)[1,2,4]triazolo[1,5-a]pyridin-8-amine] | > 10 | – | 5000 to 10000 | – |
| CN1CCN(c2ccc(Nc3ccc(-c4ccc(C(N)=O)c(F)c4)n4ncnc34)cc2)CC1 [Example 42, 2-fluoro-4-(8-{[4-(4-methylpiperazin-1-yl)phenyl]amino}[1,2,4]triazolo[1,5-a]pyridin-5-yl)benzamide] | > 10 | 501 to 1000 | – | – |
| O=C(NCc1cccnc1)c1ccc(Nc2ccc(-c3cc[nH]c(=O)c3)n3ncnc23)cc1 [Example 41, 4-{[5-(2-oxo-1,2-dihydropyridin-4-yl)[1,2,4]triazolo[1,5-a]pyridin-8-yl]amino}-N-(pyridin-3-ylmethyl)benzamide] | > 10 | 1000 to 5000 | – | – |
| CN1CCN(c2ccc(Nc3ccc(-c4cn[nH]c4)n4ncnc34)cc2)CC1 [Example 36, N-[4-(4-methylpiperazin-1-yl)phenyl]-5-(1H-pyrazol-4-yl)[1,2,4]triazolo[1,5-a]pyridin-8-amine] | – | – | 1000 to 5000 | > 10 |
| O=C(NCc1cccnc1)c1ccc(Nc2ccc(-c3cc[nH]c(=O)c3)n3ncnc23)cc1 [Example 5, 4-[5-(2-oxo-1,2-dihydro-pyridin-4-yl)-[1,2,4]triazolo[1,5-a]pyridin-8-ylamino]-N-pyridin-3-ylmethyl-benzamide] | – | – | 501 to 1000 | > 10 |
| c1nc2c(Nc3ccc(N4CCOCC4)cc3)ccc(-c3cn[nH]c3)n2n1 [Example 7, (4-Morpholin-4-yl-phenyl)-[5-(1H-pyrazol-4-yl)-[1,2,4]triazolo[1,5-a]pyridin-8-yl]-amine] | 5 to 10 | 501 to 1000 | – | – |
| CN1CCN(c2ccc(Nc3ccc(-c4cc[nH]c(=O)c4)n4ncnc34)cc2)CC1 [Example 4, 4-{8-[4-(4-Methyl-piperazin-1-yl)-phenylamino]-[1,2,4]triazolo[1,5-a]pyridin-5-yl}-1H-pyridin-2-one] | – | – | 501 to 1000 | 1 to 5 |
| CN1CCN(c2ccc(Nc3ccc(-c4cn[nH]c4)n4ncnc34)cc2)CC1 [Example 2, [4-(4-Methyl-piperazin-1-yl)-phenyl]-[5-(1H-pyrazol-4-yl)-[1,2,4]triazolo[1,5-a]pyridin-8-yl]-amine] | 5 to 10 | 501 to 1000 | – | – |
| NC(=O)c1ccc(-c2ccc(Nc3ccc(N4CCOCC4)cc3)c3ncnn23)cc1 [Example 1, 4-[8-(4-Morpholin-4-yl-phenylamino)-[1,2,4]triazolo[1,5-a]pyridin-5-yl]-benzamide] | > 10 | 501 to 1000 | – | – |
| O=C(NCc1cccnc1)c1ccc(Nc2ccc(-c3cn[nH]c3)n3ncnc23)cc1 [Example 3, 4-[5-(1H-Pyrazol-4-yl)-[1,2,4]triazolo[1,5-a]pyridin-8-ylamino]-N-pyridin-3-ylmethyl-benzamide] | – | – | 501 to 1000 | 1 to 5 |
| Cc1[nH]ncc1-c1ccc(Nc2ccc(N3CCOCC3)cc2)c2ncnn12 [Example 8, [5-(5-Methyl-1H-pyrazol-4-yl)-[1,2,4]triazolo[1,5-a]pyridin-8-yl]-(4-morpholin-4-yl-phenyl)-amine] | – | – | 1000 to 5000 | 5 to 10 |
| O=C(NCc1cccnc1)c1ccc(Nc2ccc(-c3cn[nH]c3)n3ncnc23)cc1 [Example 37, 4-{[5-(1H-pyrazol-4-yl)[1,2,4]triazolo[1,5-a]pyridin-8-yl]amino}-N-(pyridin-3-ylmethyl)benzamide] | 1 to 5 | < 500 | – | – |
